Data: ChEMBL document CHEMBL3301361, “Experimental in vitro DMPK and physicochemical data on a set of publicly disclosed compounds”
In brackets after ≈: the same amount, converted by molar mass.

Experiments:
in vitro [1] = details: human
in vitro [2] = details: hepatocytes
physchem [3] = details: pH 7.4 buffer
in vitro [4] = details: human, plasma
in vitro [5] = details: SD, HW or BN, rat, plasma
physchem [6] = details: octan-1-ol/water
in vitro [7] = details: human, hepatocytes

| SMILES | microsomal CLint (in vitro [1]; microsomes) [µL/min/mg] | hepatocyte CLint (in vitro [2]) [µL/min/1e6 cells] | solubility thermodynamic (physchem [3]) [µM] | fraction unbound at 5 h (in vitro [4]; PPB) | fraction unbound at 5 h (in vitro [5]) | logD (physchem [6]; pH 7.4, LogD7.4) | hepatocyte CLint (in vitro [7]) [µL/min/1e6 cells] | microsomal CLint (in vitro [1]; liver microsomes) [µL/min/mg] | fraction unbound at 5 h (in vitro [4]) | logD (physchem [6]; pH 7.4) |
| --- | --- | --- | --- | --- | --- | --- | --- | --- | --- | --- |
| Cc1ccc(N2CC(COc3ccc(-c4noc(C)n4)cc3)C2)nn1 | 26.3 | 6 | 129 (≈ 43.5 µg/mL) | 0.062 | 0.0488 | 2.62 | – | – | – | – |
| NC1(c2ccc(-c3ncc4cccnc4c3-c3ccccc3)cc2)CCC1 | – | – | – | – | – | – | 19.5 | – | – | – |
| COc1ccc([C@]2(C#N)CC[C@@H](C(=O)O)CC2)cc1OC1CCCC1 [CILOMILAST] | 13 | 28 | – | 0.0116 | 0.0606 | 0.76 | – | – | – | – |
| O=C(O)C1CSC(c2ccccc2Cl)N1C(=O)c1ccc(Cl)cc1 (configuration not stated) | – | – | – | – | – | – | 15.5 | – | – | – |
| Cc1ccc(S(=O)(=O)Nc2c(C(=O)NC(C)C(C)(C)C)c(C)nn2-c2ccccc2)cc1 (configuration not stated) | – | 7 | – | 0.0127 | 0.0457 | 1.21 | – | 31 | – | – |
| Cc1cccc([C@H](C)c2c[nH]c(=S)[nH]2)c1C [REZATOMIDINE] | 24.6 | 25.7 | – | – | 0.19 | – | – | – | 0.17 | 2.9 |
| Cc1ccc2nc(C(=O)O)[nH]c2c1 | – | – | – | – | – | – | 9.77 | – | – | – |
| CCCS(=O)(=O)Nc1ccc(F)c(C(=O)c2c[nH]c3ncc(-c4ccc(Cl)cc4)cc23)c1F [VEMURAFENIB] | – | – | – | – | – | – | 6.61 | – | – | – |
| CC(C)(C)NC(=O)NCCN1CCC(CO)(CNC(=O)c2cc(Cl)cc(Cl)c2)CC1 | – | – | – | – | – | – | 7.08 | – | – | – |
| Clc1ccc(COc2ccc(Br)cc2CN2CCOCC2)cc1 | – | – | – | – | – | – | 55 | – | – | – |
| Cc1c(N(C)C)c(=O)n(-c2ccccc2)n1C [AMINOPYRINE] | – | – | – | – | – | – | 3.47 | – | – | – |
| NC1(c2ccc(-c3c(-c4ccccc4)ccn4ncnc34)cc2)CCC1 | – | – | – | – | – | – | < 3 | – | – | – |
| Cc1c(Cl)ccc(OC2CCN(CC3CCN([C@@H](Cc4ccc(F)cc4)C(=O)O)CC3)CC2)c1Cl | – | 13.8 | – | 0.0374 | 0.232 | – | – | < 3 | – | – |
| COCC(C)n1nc(C)c(C(=O)N[C@@H](C)C(C)(C)C)c1NS(=O)(=O)c1ccc(C)cc1 (some centres not stated) | – | < 3 | – | 0.0836 | 0.139 | 0.61 | – | 6 | – | – |
| CC1(C)[C@@H]2CC[C@@]1(CS(=O)(=O)N1CCN(c3ccc(C(F)(F)F)cn3)CC1)C(=O)C2 | – | 141 | – | 0.0092 | 0.0191 | – | – | 51 | – | – |
| Cc1ccc(S(=O)(=O)Nc2c(C(=O)NCC(C)(C)C)c(C)nn2-c2ccccc2)cc1 | 27 | 18 | – | 0.0082 | 0.0335 | 1.46 | – | – | – | – |
| C[C@]12CC[C@H]3[C@@H](CCC4=CC(=O)CC[C@@]43C)[C@@H]1CC[C@@H]2O [TESTOSTERONE] | – | – | – | – | – | – | > 150 | – | – | – |
| Cc1ccc(-c2cc(C(F)(F)F)nn2-c2ccc(C(=O)O)cc2)cc1 | – | – | – | – | – | – | 10.7 | – | – | – |
| COCCOc1cc(-c2cccc3c(=O)cc(N4CCOCC4)oc23)ccc1NC(=O)CN1CCOCC1 | – | – | – | – | – | – | 43.6 | – | – | – |
| O=c1[nH]c2c(O)ccc([C@@H](O)CN[C@H]3CCC[C@@H]3OCc3ccccc3)c2s1 | 26 | 108 | – | 0.069 | 0.179 | – | – | – | – | – |
| CCC[C@@H](CNC(=O)c1nc(Cl)c(N)nc1N)[N+](C)(C)CCCc1ccc(OC)cc1 | 87.1 | 24 | – | 0.511 | 0.454 | 0.4 | – | – | – | – |
| CC(C)(Cc1cccc(CC(=O)NCc2cccc(-c3ccc(O)cc3)c2)c1)NC[C@H](O)c1ccc(O)c(NS(C)(=O)=O)c1 [PF-00610355] | – | 37 | 57.5 (≈ 35.5 µg/mL) | 0.0053 | 0.0818 | 1.91 | – | 99 | – | – |
| Cc1c[nH]c(-c2cnc(NCCNc3ccc(C#N)cn3)nc2-c2ccc(Cl)cc2Cl)n1 [LADUVIGLUSIB] | 96 | 108 | 0.4 (≈ 0.186 µg/mL) | 0.0187 | 0.0447 | 3.86 | – | – | – | – |
| O=C1NC(=O)C(c2cnc3ccccn23)=C1c1cn2c3c(cccc13)CN(C(=O)N1CCOCC1)CC2 | – | 38 | 0.6 (≈ 0.298 µg/mL) | 0.142 | 0.114 | 1.79 | – | 42 | – | – |

| SMILES | microsomal CLint (in vitro [1]; microsomes) [µL/min/mg] | hepatocyte CLint (in vitro [2]) [µL/min/1e6 cells] | solubility thermodynamic (physchem [3]) [µM] | fraction unbound at 5 h (in vitro [4]; PPB) | fraction unbound at 5 h (in vitro [5]) | logD (physchem [6]; pH 7.4, LogD7.4) | hepatocyte CLint (in vitro [7]) [µL/min/1e6 cells] | microsomal CLint (in vitro [1]; liver microsomes) [µL/min/mg] | fraction unbound at 5 h (in vitro [4]) | logD (physchem [6]; pH 7.4) |
| --- | --- | --- | --- | --- | --- | --- | --- | --- | --- | --- |
| CN(CCCOCCOCCc1ccccc1)CCc1ccc(O)c2nc(O)sc12 | – | > 150 | – | 0.0988 | 0.24 | – | – | 35 | – | – |
| CCc1cnn2c(NCc3ccc[n+]([O-])c3)cc(N3CCCC[C@H]3CCO)nc12 [DINACICLIB] | > 150 | > 150 | – | 0.0988 | 0.176 | – | – | – | – | – |
| COc1cc2nnc(C(N)=O)c(Nc3ccc(F)cc3F)c2cc1N1CCN(C)CC1 | 33 | 16 | – | 0.0948 | 0.157 | 2.36 | – | – | – | – |
| Cc1ccc(S(=O)(=O)Nc2c(C(=O)N[C@@H](C)C(C)(C)C)c(C)nn2C2CCCC2)cc1 | 21 | 8 | – | 0.0214 | 0.0268 | 2 | – | – | – | – |
| O=C(NCC1(O)CCCCCC1)c1cc(-c2ccccc2C(=O)O)ccc1Cl | – | 12.5 | – | 0.089 | 0.0909 | -0.34 | – | < 3 | – | – |
| COc1ccc(CC(C)(C)NC[C@H](O)c2cc(O)cc3c2OCC(=O)N3)cc1 [OLODATEROL] | – | 14 | – | 0.409 | 0.443 | 0.79 | – | 14 | – | – |
| COCCC(C)n1nc(C)c(C(=O)N[C@@H](C)C(C)(C)C)c1NS(=O)(=O)c1ccc(C)cc1 (some centres not stated) | 3.9 | 9.9 | – | 0.101 | 0.276 | 0.78 | – | – | – | – |
| COc1ccc(CNC(=O)Nc2ncc([N+](=O)[O-])s2)cc1 | – | 91 | – | 0.0032 | 0.0108 | 2.9 | – | 56 | – | – |
| CC(C)c1nc2ccccc2n1-c1nc(N2CCOCC2)c2nc(OC3CN(C4CCS(=O)(=O)CC4)C3)n(C)c2n1 | 20.4 | 10 | – | 0.22 | 0.22 | 2.9 | – | – | – | – |
| Cc1ccc(S(=O)(=O)Nc2c(C(=O)NC3CCCCC3)c(C)nn2-c2ccccc2)cc1 | – | 12 | 1410 (≈ 639 µg/mL) | 0.0014 | 0.0214 | 1.68 | – | 38 | – | – |
| CNCCC=C1c2ccccc2CCc2ccccc21 [NORTRIPTYLINE] | < 3 | 144 | – | 0.132 | 0.132 | 1.58 | – | – | – | – |
| C[C@@H]1CN(Cc2nnc(-c3cc(-c4cccc5[nH]ccc45)cc4[nH]ncc34)o2)C[C@H](C)O1 | – | 55 | – | 0.0191 | 0.0313 | 4.01 | – | 107 | – | – |
| CCc1c2c(nc3ccc(O)cc13)-c1cc3c(c(=O)n1C2)COC(=O)[C@]3(O)CC [7-ETHYL-10-HYDROXYCAMPTOTHECIN] | 25.1 | 24 | – | – | 0.0948 | 1.6 | – | – | – | – |
| Cc1ccc(S(=O)(=O)Nc2c(C(=O)N[C@@H](C)C(C)(C)C)c(C)nn2C2CCSCC2)cc1 | – | 5 | 912 (≈ 437 µg/mL) | 0.0532 | 0.0661 | 1.29 | – | 25 | – | – |
| Cc1ccc(S(=O)(=O)Nc2c(C(=O)NC3CCCCC3C)c(C)nn2-c2ccccc2)cc1 (configuration not stated) | – | 17 | – | 0.0066 | 0.0224 | 1.94 | – | 58 | – | – |
| C[C@H](CO)n1ccc2c(NC(=O)Cc3ccc(Cl)c(C(F)(F)F)c3)cccc2c1=O | – | 29 | – | – | 0.0391 | 3.49 | – | < 3 | – | – |
| Cc1ccc(S(=O)(=O)Nc2c(C(=O)N[C@@H](C)C(C)(C)C)c(C)nn2CC(F)(F)F)cc1 | – | 18 | – | 0.0142 | 0.0274 | 0.93 | – | 17 | – | – |
| CCC(CC)NC(=O)c1cnn(-c2ccccn2)c1NS(=O)(=O)c1ccc(C)cc1 | – | 9.95 | – | – | 0.0499 | 0.27 | – | < 3 | – | – |
| CCC(C)NC(=O)c1c(C)nn(-c2ccccc2)c1NS(=O)(=O)c1ccc(C)cc1 (configuration not stated) | 15.7 | 17.3 | – | 0.0059 | 0.0335 | 0.66 | – | – | – | – |
| Cc1ccccc1/N=N/c1ccc(NC(=O)c2ccnn2C)c(C)c1 | 4 | 51 | 3.2 (≈ 1.07 µg/mL) | – | 0.0017 | – | – | – | – | – |
| CSCCC(NC(=O)c1ccccc1)c1nc2ccccc2n1Cc1ccc(C#N)cc1 (configuration not stated) | – | > 150 | – | – | 0.0245 | 4.24 | – | > 150 | – | – |
| C[C@]12Cc3cnn(-c4ccc(F)cc4)c3C=C1CC[C@@]2(O)CCc1ccc(F)cc1C(N)=O | 105 | 52.5 | – | 0.0321 | 0.0046 | 3.8 | – | – | – | – |
| Cc1ccc(S(=O)(=O)Nc2c(C(=O)NCc3ccccc3)cnn2-c2ccccc2)cc1 | – | 40 | – | – | 0.0066 | 1.9 | – | > 150 | – | – |
| Cc1ccc(S(=O)(=O)Nc2c(C(=O)N[C@H](C)C(C)(C)C)c(C)nn2-c2ccccc2)cc1 | – | 8 | 1000 (≈ 455 µg/mL) | 0.0081 | 0.0374 | 1.2 | – | 42 | – | – |
